Two compounds from patent publication US4264736A, “Antibiotic 890A10” (Merck & Co., Inc., priority 1979, dated 1981) can be followed below.

Counter-ions that a name gives are not always drawn.

The subject of data set [1] is Vibrio percolans ATCC 8461. The data set is described as follows: 890 Assay Units, agar plate disc-diffusion, cephaloridine standard. Type of data set: cell-based. As to the method:
II. Assay Procedure for Determining "890 Assay Units"
A conventional agar plate disc-diffusion method is employed using Vibrio percolans ATCC 8461 as tester organism. Cephaloridine is employed as a standard. Plates containing Vibrio percolans ATCC 8461 are prepared as follows. A culture of Vibrio percolans ATCC 8461 is incubated in nutrient broth-yeast extract overnight on a rotary shaker at 28° C. and then diluted to a density of 60% transmittance at 660 nm. A 33.2 ml. portion of this diluted culture is added to 1 liter of a medium composed of nutrient agar plus 0.2% yeast extract maintained at 46° C. The inoculated agar-containing medium is poured into 100×15 mn. plastic-petri dishes, 10 ml. per dish, chilled, and maintained at 2°-4° C. for up to 5 days before use.
The concentration of cephaloridine which is equivalent to 1 unit/ml. of 890A1 is determined by assay on plates prepared as above, but containing 5 ml. of inoculated medium per plate, as follows. Four concentrations of cephaloridine constitute the standard--3.12, 6.25, 12.5 and 25 mcg per ml. with the 12.5 mcg per ml. as a reference solution. The zone diameters on a 5 ml. plate for the standard are as follows:
A unit is defined as the amount of antibiotic per ml. producing a 25 mm. zone of inhibition on a 5 ml. plate as described in section I above. Therefore, in this assay a concentration of 12.5 mcg per ml. of cephaloridine is considered equivalent to 1 unit of 890A1 per ml. Since the slope of the line for cephaloridine is 4.0 calculations of the potency of a sample are made using a slope of 4.0
On the technique in general: A growth-free zone around the sample is the usual read-out of agar diffusion tests.

Data set [2] in a line: Hydroxylamine reaction (A300 decrease). Type of data set: physicochemical. The source says:
The disodium salt of antibiotic 890A10 has an absorption maximum at 299 nm and a minimum at 243 nm at neutral pH in water. The E% at 300 nm of the most highly purified preparation of disodium salt is 214. The ratio A300 /A250 is 3.33 for the most purified sample, and the ratio A300 /A220 is 2.05. […] More than 94% of the absorption at 300 nm can be extinguished by reaction with hydroxylamine at neutral pH. The absorbance at 250 nm also decreases upon reaction with hydroxylamine, and the ratio of the absorbance decrease at 250 nm to the decrease at 300 nm, is approximately 0.16. […]
Antibiotic 890A10 reacts with hydroxylamine and produces a substance with greatly diminished absorbance at 300 nm. This provides the basis for a quantitative assay of the antibiotic 890A10.
The solution to be assayed is brought to 0.05 M in potassium phosphate, pH 7.4 by adding 1/20th volume of a solution containing 0.8 M K2 HPO4 and 0.2 M KH2 PO4 . Then one-hundredth volume of 1 M hydroxylamine hydrochloride is added, and the absorbance at 300 nm is measured at intervals of one-half to two minutes. […] First-order kinetics are assumed and a half-life is estimated from the absorbance decrease during the first ten minutes. From this half-life, the time is estimated beyond which no further absorbance decrease should be observed and observations are continued beyond that time. […]

As to `O=C(Cc1cccs1)N[C@@H]1C(=O)N2C(C(=O)[O-])=C(C[n+]3ccccc3)CS[C@H]12` [cephaloridine], the “concentration equivalent to 1 unit of 890A1 per ml” value in data set [1] (25 mm zone of inhibition on a 5 ml plate) is recorded as 12.5 mcg per ml. Moreover, the zone of inhibition at 3.12 µg/mL in data set [1] (Comamonas terrigena, ATCC8461, 3.12 mcg/ml, 5 ml plate, read-out: Zone Diameter) worked out at 16.8 mm. The zone of inhibition at 6.25 µg/mL in data set [1] (Comamonas terrigena, ATCC8461, 6.25 mcg/ml, 5 ml plate, read-out: Zone Diameter) came out at 22.3 mm. The zone of inhibition at 12.5 µg/mL in data set [1] (Comamonas terrigena, ATCC8461, 12.5 mcg/ml (reference solution), 5 ml plate, read-out: Zone Diameter) is 25 mm. In data set [1] (Comamonas terrigena, ATCC8461, 25 mcg/ml, 5 ml plate, read-out: Zone Diameter), the zone of inhibition at 25 µg/mL came to 29.6 mm.
Regarding `CC(=O)NCCSC1=C(C(=O)O)N2C(=O)C(C(C)OS(=O)(=O)O)C2C1` (stereo not shown) [disodium salt of antibiotic 890A10], the “absorption at 300 nm extinguished by reaction with hydroxylamine” value in data set [2] (neutral pH) was “More than 94%”. Moreover, the “half-life of reaction with hydroxylamine” value in data set [2] (room temperature, apparently first order, A300 decrease, pH 7.4) was in the range of 23 to 60 s.
